# Results: patent US10925974B2, “Adipose tissue-targeting polypeptide-verbascoside-nanogold particle derivative, preparation method and application thereof” (Affiliated Stomatological Hospital of Nanjing Medical …, priority 2018, dated 2021)
# Marks after values point to notes of the source that are not given here. Ends that are not written are not given here.
# Experiments:
# [1] = Inhibition of weight gain of mice fed with high-fat feed; format: in vivo
# Text: Experimental Animals: 3-4 weeks old male mice and feed provided by the Laboratory Animal Center of Nanjing Medical University, license No.: SCXK (Su) 2011-0003. The animals were randomly caged, with unlimited drink and feed. Experimental drugs: polypeptide-verbascoside-nanogold particle derivative (adipose tissue-targeting), polypeptide-verbascoside derivative, polypeptide-nanogold derivative, and verbascoside-nanogold derivative as experimental groups, and physiological saline for negative control. 2) Raising 60 male mice of 6 weeks old in the clean environment of Experimental Animal Center of Nanjing Medical University, at a temperature of (21±2) ° C., a humidity of (35±2) %, an intermittent illumination for 12 hours, with unlimited drink and feed; wherein the drinking water is distilled water prepared by the experimental animal center; 3) After 2-3 days of adaptive feeding, randomly selecting 10 mice as a blank control group provided with regular feed, while providing the remaining 50 rice with high fat feed (cholesterol 1 wt. %, lard 20 wt. %, bile salt 0.2 wt. %, and regular feed 78.8 wt. %); measuring the body weight of the mice in the two groups every 2 weeks; analyzing the obtained body weight data with statistical methods, and the results are shown in FIG. 3, wherein *P<0.05, **P<0.01, and ***P<0.001 indicate body weight data of the experimental group compared with those of the blank control group fed with regular feed; 4) Randomly dividing the obese mice fed with high-fat feed into several groups, with each group of 10 mice; injecting (exemplified by intraperitoneal injection) physiological saline (0.03 mL of physiological saline per 30 g body weight), polypeptide-verbascoside derivative (15 mg of derivative per kg body weight, dissolved in DMSO), polypeptide-nanogold derivative (15 mg of derivative per kg body weight, dissolved in DMSO), verbascoside-nanogold derivative (15 mg of derivative per kg body weight, dissolved in DMSO), and polypeptide-verbascoside-nanogold particle derivative (15 mg of derivative per kg body weight, dissolved in DMSO) at 9:30 am every day, respectively.
# [2] = tested on: visceral fat and subcutaneous fat of mice; assay: Storage of visceral fat and subcutaneous fat of mice provided with high fat feed; format: in vivo
# Experimental: 1) Providing an intraperitoneal administration to the high-fat-fed obese mice for 12 weeks according to the experimental procedure of Embodiment 3;
# 2) Fasting the mice of each group for 12 hours, and then anesthetizing with 3% pentobarbital sodium having a concentration of 45 mg/kg via intraperitoneal injection, and accurately weighing the mice;
# 3) Disinfecting routinely and performing laparotomy, rapidly extracting and weighing the adipose tissue around the kidney, adipose tissue around the mesentery, adipose tissue around the epididymis, and abdominal subcutaneous adipose tissue to obtain wet weights thereof (the abdominal subcutaneous adipose tissue range: abdomen below the rib arch and above the groin, both sides are bounded by the midaxillary line);
# 4) Calculating according to the following formula: wet weight of the abdominal adipose; total weight of the fat pad (g)=adipose tissue around the kidney+adipose tissue around the epididymis; body fat content=the total weight of the fat pad (g)/the total body weight of mice (g);
# [3] = high fat feed mice, 15 mg/kg i.p. daily for 12 weeks, wet weight
substance,measurement,setting,value
"polypeptide-verbascoside: ester of adipose tissue-targeting polypeptide CKGGRAKDC (C-terminal acyl chloride) with verbascoside sodium phenolate, per Embodiment 1 (not fully specified (C-terminus); cysteine pairing not given here)",Weight 6 weeks after administration,"[1]; high fat feed mice, 15 mg/kg intraperitoneal injection every day, 6 weeks, n=10",30.6 ± 0.3 g
same,Weight 12 weeks after administration,"[1]; high fat feed mice, 15 mg/kg intraperitoneal injection every day, 12 weeks, n=10",35.5 ± 1.6 g
same,Initial Weight,"[1]; high fat feed obese mice, before administration (baseline), n=10",29.3 ± 0.5** g
same,weight gains of mice,"[1]; treatment for 6 weeks, compared with the model control group (#p<0.05)",significantly inhibited
same,Body weight,"[2]; Table 3, high fat feed mice, 12 weeks, after 12 h fasting",35.46 ± 1.57 g
same,Body weight,"[2]; Table 4, high fat feed mice, 12 weeks",35.26 ± 1.77 g
same,SF-FAT,"[2]; abdominal subcutaneous fat, high fat feed mice, 12 weeks",0.79 ± 0.12 g
same,Total weight of the fat pad,"[2]; adipose tissues around kidney + around epididymis, high fat feed mice, 12 weeks",2.27 ± 0.14 g
same,wet weight of the visceral adipose tissues of mice,"[2]; after treatment, compared with the model control group (#p<0.05)",significantly reduced
same,Total weight of visceral adipose tissues,"[2]; high fat feed mice, 15 mg/kg i.p. daily for 12 weeks, Table 2",5.72 ± 0.17 g
same,Weight of visceral adipose tissues: Around epididymis,[2]; [3],1.21 ± 0.12 g
same,Weight of visceral adipose tissues: Around kidney,[2]; [3],0.61 ± 0.17 g
same,Weight of visceral adipose tissues: Around omentum and mesentery,[2]; [3],0.32 ± 0.05 g
same,SF-FAT/body weight,"[2]; high fat feed mice, 12 weeks",2.27 ± 0.23
same,VF-FAT/SF-FAT,"[2]; high fat feed mice, 12 weeks",2.63 ± 0.29
same,Body fat index,"[2]; total weight of the fat pad / total body weight, high fat feed mice, 12 weeks",6.13 ± 0.41 %
same,VF-FAT,"[2]; visceral fat, Table 4, high fat feed mice, 12 weeks",5.78 ± 0.17 g
